In patent US20260317324A1, “BIFUNCTIONAL COMPOUNDS FOR DEGRADING BRAF VIA UBIQUITIN PROTEOSOME PATHWAY” (Nurix Therapeutics, Inc., priority 2023, published 2026):

What was measured:
Assay type in all cases: cell-based
BRAF V600E = biological target: T1, BRAF V600E (Homo sapiens, UniProt P15056, V600E); experiment: BRAF HiBiT degradation assay, C-terminal HiBiT-tagged BRAF V600E A375 cells (clone 1F10), Nano-Glo HiBiT Lytic assay; settings: for Dmax: A-375
T1 construct: endogenous C-terminal HiBiT fusion tag on BRAF V600E allele; endogenous in cells; host or cells: A375 clone 1F10 (CRISPR-Cas9 knock-in of the HiBiT tag; parental A375 from ATCC)
Method in brief: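 Endogenous BRAF V600E-HiBiT A375 (1F10), 10,000 cells/well, 24 h preculture; cpd 11-pt, 1 μM–0.01 nM half-log, n=2, 0.2% DMSO; HiBiT lytic detection 10 min RT; DC50 = fitted conc at Y=50; Obs. Dmax vs DMSO.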

BRAF G469A = biological target: T2, BRAF G469A (Homo sapiens, UniProt P15056, G469A); experiment: BRAF HiBiT degradation assay, C-terminal HiBiT-tagged BRAF G469A overexpressed in HCT-116 BRAF−/− cells (clone 34), Nano-Glo HiBiT Lytic assay
T2 construct: Horizon Discovery (HCT-116 BRAF−/− cells); host or cells: HCT-116 BRAF−/− cells, clone 34, lentiviral transduction
Method in brief: (§1)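 Luminescence from the lytic HiBiT reagent, read after 10 min at room temperature, measured tagged BRAF remaining in lentivirally transduced HCT-116 BRAF−/− cells. Compounds were tested from 1 μM to 0.01 nM in half-log steps at 0.2% DMSO. DC50 values were fitted at 50% remaining.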

BRAF D594G = biological target: T3, BRAF D594G (Homo sapiens, UniProt P15056, D594G); experiment: BRAF HiBiT degradation assay, C-terminal HiBiT-tagged BRAF D594G overexpressed in HCT-116 BRAF−/− cells (clone 63), Nano-Glo HiBiT Lytic assay
T3 construct: Horizon Discovery (HCT-116 BRAF−/− cells); host or cells: HCT-116 BRAF−/− cells, clone 63, lentiviral transduction
Method in brief: as §1

BRAF G466V = biological target: T4, BRAF G466V (Homo sapiens, UniProt P15056, G466V); experiment: BRAF HiBiT degradation assay, C-terminal HiBiT-tagged BRAF G466V overexpressed in HCT-116 BRAF−/− cells (clone 8), Nano-Glo HiBiT Lytic assay
T4 construct: Horizon Discovery (HCT-116 BRAF−/− cells); host or cells: HCT-116 BRAF−/− cells, clone 8, lentiviral transduction
Method in brief: as §1

[1] = A375 (BRAF V600E, Class 1), DC50 at 50% degradation
[2] = A375 (BRAF V600E, Class 1), observed Dmax, % protein degraded relative to DMSO control
[3] = BRAF G469A (Class 2), HCT-116 BRAF−/− cells, DC50 at 50% degradation
[4] = BRAF G469A (Class 2), HCT-116 BRAF−/− cells, observed Dmax relative to DMSO control
[5] = BRAF D594G (Class 3), HCT-116 BRAF−/− cells, DC50 at 50% degradation
[6] = BRAF D594G (Class 3), HCT-116 BRAF−/− cells, observed Dmax relative to DMSO control
[7] = BRAF G466V (Class 3), HCT-116 BRAF−/− cells, DC50 at 50% degradation
[8] = BRAF G466V (Class 3), HCT-116 BRAF−/− cells, observed Dmax relative to DMSO control
[9] = A375 (BRAF V600E), DC50 at 50%: fitted conc. at Y=50
[10] = A375 (BRAF V600E), percentage protein degraded at maximal compound effect relative to DMSO
[11] = Class 2, BRAF G469A, DC50 at 50%: fitted conc. at Y=50
[12] = HCT-116, Class 2, BRAF G469A, percentage protein degraded at maximal compound effect relative to DMSO
[13] = BRAF D594G, DC50 at 50%: fitted conc. at Y=50
[14] = HCT-116, BRAF D594G, percentage protein degraded at maximal compound effect relative to DMSO
[15] = BRAF G466V, DC50 at 50%: fitted conc. at Y=50
[16] = HCT-116, BRAF G466V, percentage protein degraded at maximal compound effect relative to DMSO

T4 sequence (P15056 whole entry G466V): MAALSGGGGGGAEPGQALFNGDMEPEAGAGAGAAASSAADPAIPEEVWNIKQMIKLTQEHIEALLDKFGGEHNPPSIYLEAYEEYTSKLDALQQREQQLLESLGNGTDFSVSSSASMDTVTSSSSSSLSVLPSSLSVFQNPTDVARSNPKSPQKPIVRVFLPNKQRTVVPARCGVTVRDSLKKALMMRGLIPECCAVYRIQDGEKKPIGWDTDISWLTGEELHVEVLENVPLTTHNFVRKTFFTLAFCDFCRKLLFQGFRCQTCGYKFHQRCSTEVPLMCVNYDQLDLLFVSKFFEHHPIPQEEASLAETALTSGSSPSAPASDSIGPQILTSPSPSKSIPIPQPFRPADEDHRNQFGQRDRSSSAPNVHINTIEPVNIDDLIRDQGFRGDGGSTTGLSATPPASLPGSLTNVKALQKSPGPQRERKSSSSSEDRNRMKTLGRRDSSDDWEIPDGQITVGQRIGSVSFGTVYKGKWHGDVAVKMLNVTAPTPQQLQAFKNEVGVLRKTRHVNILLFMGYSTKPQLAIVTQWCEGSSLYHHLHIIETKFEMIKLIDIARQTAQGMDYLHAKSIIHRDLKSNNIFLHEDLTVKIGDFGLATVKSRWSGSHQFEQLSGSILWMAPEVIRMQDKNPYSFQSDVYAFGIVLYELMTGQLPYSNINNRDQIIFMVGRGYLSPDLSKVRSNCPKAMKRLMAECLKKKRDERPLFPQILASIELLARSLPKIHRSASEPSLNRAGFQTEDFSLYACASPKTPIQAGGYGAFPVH
T3 sequence (P15056 whole entry D594G): as the sequence (P15056 whole entry G466V) above, with V466G, D594G counted along it
T1 sequence (P15056 whole entry V600E, the tested form may be a part): as the sequence (P15056 whole entry G466V) above, with V466G, V600E counted along it
T2 sequence (P15056 whole entry G469A): as the sequence (P15056 whole entry G466V) above, with V466G, G469A counted along it

Row | DC50 (BRAF V600E; [1]) [nM] | Dmax (BRAF V600E; [2]) [%] | DC50 (BRAF G469A; [3]) [nM] | Dmax (BRAF G469A; [4]) [%] | DC50 (BRAF D594G; [5]) [nM] | Dmax (BRAF D594G; [6]) [%] | DC50 (BRAF G466V; [7]) [nM] | Dmax (BRAF G466V; [8]) [%] | DC50 (BRAF V600E; [9]) [nM] | Dmax (BRAF V600E; [10]) [%] | DC50 (BRAF G469A; [11]) [nM] | Dmax (BRAF G469A; [12]) [%] | DC50 (BRAF D594G; [13]) [nM] | Dmax (BRAF D594G; [14]) [%] | DC50 (BRAF G466V; [15]) [nM] | Dmax (BRAF G466V; [16]) [%] | SMILES
1 | < 10 | > 70 | 10 to 50 | > 70 | < 10 | > 70 | 10 to 50 | > 70 | – | – | – | – | – | – | – | – | O=C1CC[C@H](c2ccc(N3CCC(CN4CCN(c5ccc(-n6cc(-c7cc(Cl)cc(NS(=O)(=O)C8CCCC8)c7F)c(-c7ccncc7)n6)cc5)CC4)CC3)nc2)C(=O)N1 [Compound 372, N-{5-chloro-3-[1-(4-{4-[(1-{5-[(3R)-2,6-dioxopiperidin-3-yl]pyridin-2-yl}piperidin-4-yl)methyl]piperazin-1-yl}phenyl)-3-(pyridin-4-yl)-1H-pyrazol-4-yl]-2-fluorophenyl}cyclopentanesulfonamide]
2 | < 10 | > 70 | < 10 | > 70 | < 10 | > 70 | < 10 | > 70 | – | – | – | – | – | – | – | – | C[C@@H]1CN(c2ccc(-n3cc(-c4cc(Cl)cc(NS(=O)(=O)N5CCCC5)c4F)c(-c4ccncc4)n3)cc2)CCN1CC1CCN(c2ccc(C3CCC(=O)NC3=O)cn2)CC1 (mixture of isomers) [Compound 268, N-(5-chloro-3-(1-(4-((R)-4-((1-(5-((RS)-2,6-dioxopiperidin-3-yl)pyridin-2-yl)piperidin-4-yl)methyl)-3-methylpiperazin-1-yl)phenyl)-3-(pyridin-4-yl)-1H-pyrazol-4-yl)-2-fluorophenyl)pyrrolidine-1-sulfonamide]
3 | < 10 | > 70 | 10 to 50 | > 70 | < 10 | > 70 | < 10 | > 70 | – | – | – | – | – | – | – | – | C[C@@H]1CN(c2ccc(-n3cc(-c4cc(F)cc(NS(=O)(=O)N5CCCC5)c4F)c(-c4ccncc4)n3)c(F)c2)CCN1CC1CCN(c2ccc(C3CCC(=O)NC3=O)cn2)CC1 (mixture of isomers) [Compound 289, N-(3-(1-(4-((R)-4-((1-(5-((RS)-2,6-dioxopiperidin-3-yl)pyridin-2-yl)piperidin-4-yl)methyl)-3-methylpiperazin-1-yl)-2-fluorophenyl)-3-(pyridin-4-yl)-1H-pyrazol-4-yl)-2,5-difluorophenyl)pyrrolidine-1-sulfonamide]

The remaining lines, values behind:

Row | SMILES | DC50 (BRAF V600E; [1]) [nM] | Dmax (BRAF V600E; [2]) [%] | DC50 (BRAF G469A; [3]) [nM] | Dmax (BRAF G469A; [4]) [%] | DC50 (BRAF D594G; [5]) [nM] | Dmax (BRAF D594G; [6]) [%] | DC50 (BRAF G466V; [7]) [nM] | Dmax (BRAF G466V; [8]) [%] | DC50 (BRAF V600E; [9]) [nM] | Dmax (BRAF V600E; [10]) [%] | DC50 (BRAF G469A; [11]) [nM] | Dmax (BRAF G469A; [12]) [%] | DC50 (BRAF D594G; [13]) [nM] | Dmax (BRAF D594G; [14]) [%] | DC50 (BRAF G466V; [15]) [nM] | Dmax (BRAF G466V; [16]) [%]
4 | CCCS(=O)(=O)Nc1cccc(-c2nc(C(C)(C)C)sc2-c2ccnc(Nc3ccc(C4CCN(CC5CCN(c6ccc(C(=O)NC7CCC(=O)NC7=O)cc6)CC5)CC4)cc3)n2)c1F (racemic) [Compound 171, Rac-4-{4-[(4-{4-[(4-{2-tert-butyl-4-[2-fluoro-3-(propane-1-sulfonamido)phenyl]-1,3-thiazol-5-yl}pyrimidin-2-yl)amino]phenyl}piperidin-1-yl)methyl]piperidin-1-yl}-N-[(3R)-2,6-dioxopiperidin-3-yl]benzamide] | – | – | – | – | – | – | – | – | 50 to 500 | 30 to 70 | > 500 | < 30 | > 500 | < 30 | > 500 | < 30
5 | CCCS(=O)(=O)Nc1cccc(-c2nc(C)sc2-c2ccnc(Nc3ccc(C4CCN(C(=O)CC5CCN(c6ccc(NC7CCC(=O)NC7=O)cc6)CC5)CC4)cc3)n2)c1F (racemic) [Compound 44, Rac-N-{3-[5-(2-{[4-(1-{2-[1-(4-{[(3R)-2,6-dioxopiperidin-3-yl]amino}phenyl)piperidin-4-yl]acetyl}piperidin-4-yl)phenyl]amino}pyrimidin-4-yl)-2-methyl-1,3-thiazol-4-yl]-2-fluorophenyl}propane-1-sulfonamide] | – | – | – | – | – | – | – | – | < 10 | > 70 | > 500 | < 30 | > 500 | < 30 | > 500 | < 30
